Assay results taken from paper PMC6105163, “Abaloparatide Exerts Bone Anabolic Effects with Less Stimulation of Bone Resorption-Related Factors: A Comparison with Teriparatide” (Calcified Tissue International, 2018).
Like-named read-outs stand apart in the source and are kept apart here.

Experiments:
[1] = tested on: OVX rats; assay: Bone formation marker serum P1NP in OVX rats; format: in vivo, Sprague–Dawley rats (female); conditions: once daily s.c., day 28, vs OVX, n = 8 or 9
Description: (§1) Ten-week-old female Sprague–Dawley rats were purchased from Charles River Laboratories Japan, Inc. (Kanagawa, Japan) and ovariectomized at 12 weeks old. Thirty-five days after surgery, rats received once daily subcutaneous injection of ABL, TPTD, or vehicle (saline containing 0.1% heat-inactivated rat serum) for 28 days. Day 0 indicates the day when administration was started. On day 26, rats were anesthetized with intraperitoneally administered pentobarbital sodium and the lumbar spine (L4 and L5) BMD was measured with a PIXImus2 (GE Healthcare, Chicago, IL). Blood (collected from the tail vein) and urine samples were obtained on day 28. Prior to collection, rats were fasted for 15–17 h. Rats were euthanized after the blood and urine collection, and the lumbar spine was removed for the measurement of bone strength. All experimental procedures were approved by the Animal Care and Use Committee of Teijin Institute for Bio-Medical Research.
(§2) Serum P1NP concentration was measured with a Rat/Mouse PINP EIA kit (Immunodiagnostic Systems, Boldon, UK). Urine DPD concentration was measured with an Osteolinks DPD kit (Quidel, San Diego, CA, USA). Urine creatinine (Cr) concentration was measured with a 7180 Autoanalyzer (Hitachi High-Technologies Corporation, Tokyo, Japan).

[2] = tested on: SaOS-2; assay: Bone formation-related factor gene expression (qRT-PCR); format: cell-based, human; conditions: for IGF-1 gene expression / osteocalcin gene expression: 100 nmol/L once daily 11 days, 6-h exposure per 24-h cycle (Fig. 3b), n = 3; for IGF-1 and osteocalcin expression, continuous treatment: data not shown
Procedure: SaOS-2 was cultured in 12-well plates at a density of 2 × 10^5 cells/well in DM. Concomitant with the initiation of cell differentiation, cells were treated with 100 nmol/L of ABL and TPTD once daily for 11 days. The peptide exposure was limited to the first 6 h of the 24-h incubation cycle, and the medium was replaced with peptide-free medium for the rest of the cycle after washing with PBS twice.
(§3) Cells were lysed and total RNA was extracted using an RNeasy Mini Kit (Qiagen, Valencia, CA, USA). RNA was reverse-transcribed into cDNA using the SuperScript III First-Strand Synthesis System for RT-PCR (Invitrogen, Carlsbad, CA, USA). Quantitative RT-PCR was performed on a 7500 Real-Time PCR System (Applied Biosystems) using Power SYBR Green PCR Master Mix (Thermo Fisher Scientific, Waltham, MA, USA). The primers used in this study were as follows: 5′-CGATGGTGGATGGCTCATG-3′ (forward) and 5′-ACCAGATGGGATGTCGGTG-3′ (reverse) for RANKL, 5′-[…]-3′ (forward) and 5′-[…]-3′ (reverse) for M-CSF, 5′-[…]-3′ (forward) and 5′-[…]-3′ (reverse) for OPG, 5′-[…]-3′ (forward) and 5′-[…]-3′ (reverse) for IGF1, 5′-[…]-3′ (forward) and 5′-[…]-3′ (reverse) for osteocalcin, 5′-[…]-3′ (forward) and 5′-[…]-3′ (reverse) for DMP1, 5′-[…]-3′ (forward) and 5′-[…]-3′ (reverse) for SOST, 5′-[…]-3′ (forward) and 5′-[…]-3′ (reverse) for DKK1, 5′-GTGAAGGTCGGAGTCAACG-3′ (forward) and 5′-TGAGGTCAATGAAGGGGTC-3′ (reverse) for GAPDH.

[3] = tested on: SaOS-2; assay: Bone resorption-related factor gene expression (qRT-PCR); format: cell-based, human; conditions: 100 nmol/L; for M-CSF mRNA expression / OPG mRNA expression / RANKL mRNA expression / RANKL/OPG mRNA expression: continuous treatment (Fig. 2b); for expression of bone resorption-related factors such as RANKL/OPG and M-CSF: human osteoblastic cells
Procedure: SaOS-2 was cultured in 48-well plates at a density of 5 × 10^4 cells/well in DM for 10 days. The medium was replaced with serum-free DM for culture under starvation conditions. Twenty-four hours after the start of starvation, cells were treated with ABL and TPTD at a concentration of 100 nmol/L. Six hours after treatment, cells were washed with PBS twice, and cultured with peptide-free or peptide-containing medium for the rest of the experimental period.
as §3

[4] = cited from earlier work
[5] = tested on: OVX rats; assay: Bone resorption marker urine DPD/Cr in OVX rats; format: in vivo, Sprague–Dawley rats (female); conditions: once daily s.c.; for urinary DPD/Cr at 5.0 nmol/kg: day 28; for urinary DPD/Cr, significance: day 28, n = 8 or 9
Description: as §1, §2

[6] = tested on: OVX rats; assay: L4 vertebral bone strength in OVX rats; format: in vivo, Sprague–Dawley rats (female); conditions: once daily s.c. for 28 days, day 28, vs OVX, n = 8 or 9
Description: as §1
L4 was isolated from the lumbar spine. The height of the vertebral body was measured with a vernier caliper. To obtain vertebral body specimens, the cranial and caudal ends of the vertebral body were cut with a diamond saw to a height of 4 mm. Bone strength was measured with a MZ-500S (MARUTO Testing Machine Company, Tokyo, Japan).

[7] = tested on: OVX rats; assay: Lumbar spine (L4-L5) BMD in OVX rats; format: in vivo, Sprague–Dawley rats (female); conditions: once daily s.c. for 28 days, BMD on day 26 (PIXImus2), vs OVX, n = 8 or 9
Description: as §1

[8] = tested on: rat osteoblastic cell line UMR-106; assay: cAMP accumulation assay in UMR-106; format: cell-based; conditions: for cAMP accumulation, in words: UMR-106, 10 min (Fig. 1b), n = 3 replicate wells; for EC50 / Emax, cAMP accumulation: UMR-106, 10 min, 2 mmol/L 3-isobutyl-1-methylxanthine, mean ± s.e.m., three independent experiments, each triplicate; for EC50: P = 0.0067 ABL vs TPTD; for Emax, cAMP accumulation: P = 0.84 ABL vs TPTD
Procedure: The human osteoblastic cell line SaOS-2 and the rat osteoblastic cell line UMR-106 were purchased from the European Collection of Cell Cultures (Wiltshire, UK). SaOS-2 and UMR-106 were maintained in growth medium (GM): McCoy’s 5A (for SaOS-2) or Dulbecco’s Modified Eagle’s Medium (for UMR-106) supplemented with 10% FBS and 1% penicillin/streptomycin at 37 °C with 5% CO2. To initiate cell differentiation, cells were grown in differentiation medium (DM): GM containing 50 µg/mL ascorbic acid, 10 mmol/L β-glycerophosphate, and 10 nmol/L dexamethasone. The culture medium was exchanged every 6 days or less.
Cells were cultured in 96-well plates at a density of 4 × 10^4 cells/well in GM overnight. The medium was replaced with serum-free GM (containing 0.1% BSA instead of 10% FBS) for culture under starvation conditions. Twenty-four hours after the start of starvation, ABL, TPTD, or vehicle (water containing 0.1% BSA) were added to the cells with 2 mmol/L of 3-isobutyl-1-methylxanthine for 10 min. Cells were lysed and accumulated cAMP was measured using the cAMP-Screen System (Applied Biosystems, Waltham, MA, USA) according to the manufacturer’s instructions.
All data are expressed as means ± s.e.m. For calculation of EC50 and Emax, 4-parameter logistic curve fitting was performed. Student’s t test was used for two-group comparisons. Dunnett’s or Tukey’s test was used for multiple comparisons. Significance was inferred from P values of < 0.05. All data were analyzed using GraphPad Prism version 6.03 (GraphPad Software, La Jolla, CA, USA).

| Substance | serum P1NP [1] | IGF-1 gene expression [2] | osteocalcin gene expression [2] | IGF-1 and osteocalcin expression, continuous treatment [2] | M-CSF mRNA expression ([3]; n = 3) | OPG mRNA expression ([3]; n = 3) | RANKL mRNA expression ([3]; n = 3) | RANKL/OPG mRNA expression ([3]; n = 3) | expression of bone resorption-related factors such as RANKL/OPG and M-CSF [3] | urinary DPD/Cr at 5.0 nmol/kg [5] | urinary DPD/Cr, significance [5] | lumbar spine (L4) bone strength [6] | lumbar spine BMD [7] | cAMP accumulation, in words [8] | EC50 [8] | Emax, cAMP accumulation [8] | also measured |
| --- | --- | --- | --- | --- | --- | --- | --- | --- | --- | --- | --- | --- | --- | --- | --- | --- | --- |
| [Glu^22,25, Leu^23,28,31, Aib^29, Lys^26,30] human PTHrP(1–34)–NH2 [Abaloparatide] | significantly increased | increased | increased | could hardly detect | similarly promoted | inhibited | similarly promoted | similarly promoted | increased | a slight increase | no significant differences | significantly increased | significantly increased | dose-dependently increased cAMP | 0.84 ± 0.03 nM | 278.4 ± 20.8 nmol/L | IGF-1 and osteocalcin effects, ABL vs TPTD ([2]; 100 nmol/L, repeating 6-h exposure cycle, 11 days (Fig. 3b)): not significantly different; M-CSF expression, ABL vs TPTD ([3]; transient 6-h treatment): less than TPTD; RANKL/OPG expression, ABL vs TPTD ([3]; transient 6-h treatment): less than TPTD; bone resorption-related factors mRNA, ABL vs TPTD ([3]; transient treatment (first 6 h, then washed out) (Fig. 2d), n = 3): significantly attenuated as compared with TPTD; half-life in humans ([4]; human, in vivo, sc): approximately an hour or less |
| human PTH(1–34) [Teriparatide] | significantly increased | increased | increased | could hardly detect | similarly promoted | inhibited | similarly promoted | similarly promoted | increased | a slight increase | no significant differences | significantly increased | significantly increased | dose-dependently increased cAMP | 1.18 ± 0.06 nM | 271.4 ± 25.0 nmol/L | half-life in humans ([4]; subcutaneous injection, ref [27], [28]): approximately an hour or less |
